Columns and labels:
Assay type in all cases: cell-based, Lactococcus lactis
NZ9000NsrFP = test: Growth inhibition (IC50), strain expressing NsrFP; conditions: IC50 against NZ9000NsrFP divided by IC50 against NZ9000Cm
Excerpt: The nsrfp gene from S. agalactiae COH1 was amplified from the chromosomal DNA using two primers (NsrFP_for 5′-[…]-3′ and NsrFP_rev 5′-[…]-3) and ligated into pIL-SV (E. coli–L. lactis shuttle vector) ([Alkhatib et al., 2014b]). The point mutation NsrFH202A was introduced by a standard mutagenesis protocol using the following primers: forward: 5′-[…]-3′; reverse: 5′-[…]-3′. The resulting plasmid was verified by sequencing and transformed into the L. lactis strain NZ9000 for expression ([Holo and Nes, 1989]) and the corresponding strains were termed NZ9000NsrFP and NZ9000NsrFH202AP. An empty vector pIL-SVCm was also transformed into the NZ9000 strain and was used as a control (that excludes any possible effect of induction of the plasmid), and this strain was called NZ9000Cm. The expression of the nsrfp gene is regulated by the TCS NisR/NisK present in the NZ9000 strain genome. […]
(§1) The plate was incubated at 30°C. After 5 h, the optical density was measured at 584 nm via 96-well plate reader BMG. The normalized optical density was plotted against the logarithm of the nisin concentration in order to calculate the IC50 of nisin and the data was evaluated using the following equation (Eq. 1): […]
We determined the IC50 value of nisin against the NZ9000Cm sensitive strain as well as the strain NZ9000NsrFP and NZ9000NsrFH202AP. […]

NZ9000NsrFH202AP = test: Growth inhibition (IC50), strain expressing ATP-hydrolysis-deficient NsrFH202AP; conditions: IC50 against NZ9000NsrFH202AP divided by IC50 against NZ9000Cm
Excerpt: (§2) The nsrfp gene from S. agalactiae COH1 was amplified from the chromosomal DNA using two primers (NsrFP_for 5′-[…]-3′ and NsrFP_rev 5′-[…]-3) and ligated into pIL-SV (E. coli–L. lactis shuttle vector) ([Alkhatib et al., 2014b]). The point mutation NsrFH202A was introduced by a standard mutagenesis protocol using the following primers: forward: 5′-[…]-3′; reverse: 5′-[…]-3′. The resulting plasmid was verified by sequencing and transformed into the L. lactis strain NZ9000 for expression ([Holo and Nes, 1989]) and the corresponding strains were termed NZ9000NsrFP and NZ9000NsrFH202AP. An empty vector pIL-SVCm was also transformed into the NZ9000 strain and was used as a control (that excludes any possible effect of induction of the plasmid), and this strain was called NZ9000Cm. The expression of the nsrfp gene is regulated by the TCS NisR/NisK present in the NZ9000 strain genome.
Cells from the different expressing strains were grown overnight in GM17 supplemented with 5 μg/ml chloramphenicol in presence of 1 ng/ml nisin. The diluted cells (final OD584 was 0.1) were incubated with a serial dilution of nisin in a 96-well plate. The total volume in each well was 200 μl, consisting of 50 μl nisin and 150 μl GM17 containing the corresponding L. lactis strain.
The plate was incubated at 30°C. After 5 h, the optical density was measured at 584 nm via 96-well plate reader BMG. The normalized optical density was plotted against the logarithm of the nisin concentration in order to calculate the IC50 of nisin and the data was evaluated using the following equation (Eq. 1):
y=ODmin+ODmax−ODmin/1+10^(log(IC50)−x) ×p
The ODmax value describes the normalized optical density value where no nisin was added, while the ODmin value corresponds to the normalized optical density of the cells grown in the highest nisin concentrations. The y represents the resulted normalized optical density value and x represents the logarithmic of the nisin concentration added. The IC50 value is the concentration of nisin where the growth of the L. lactis strain is inhibited by 50% ([Abts et al., 2011]).
We determined the IC50 value of nisin against the NZ9000Cm sensitive strain as well as the strain NZ9000NsrFP and NZ9000NsrFH202AP. By dividing these two values the fold of resistance is obtained. […] Dividing these two values results in a fold of resistance of 16.7.

NZ9000Cm = test: Growth inhibition (IC50), nisin-sensitive control strain with empty vector; conditions: product of NSR cleavage (last six amino acids cleaved off)
Excerpt: as §2
Cells from the different expressing strains were grown overnight in GM17 supplemented with 5 μg/ml chloramphenicol in presence of 1 ng/ml nisin. […]
as §1

SMILES | Fold of resistance NZ9000NsrFP (NZ9000NsrFP) | Fold of resistance NZ9000NsrFH202AP (NZ9000NsrFH202AP) | Fold lower activity compared with nisin (NZ9000Cm)
C=C(NC(=O)[C@@H](NC(=O)[C@H](CCCCN)NC(=O)[C@@H](NC(=O)[C@H](CO)NC(=O)[C@@H]1CS[C@@H](C)[C@H]2NC(=O)[C@H](C)NC(=O)[C@H](NC(=O)[C@H](CCCCN)NC(=O)[C@H](Cc3ccc(O)cc3)NC(=O)[C@H](CC(N)=O)NC(=O)[C@@H]3CS[C@@H](C)[C@@H](NC(=O)[C@H](CCCCN)NC(=O)[C@@H]4CS[C@@H](C)[C@@H](NC(=O)[C@@H]5CSC[C@@H](NC(=O)/C(=C/C)NC(=O)[C@@H](N)Cc6ccccc6)C(=O)N[C@@H]([C@@H](C)CC)C(=O)NC(=C)C(=O)N[C@@H](CCSC)C(=O)N5)C(=O)N5CCC[C@H]5C(=O)NCC(=O)N4)C(=O)NCC(=O)N[C@@H](C)C(=O)N[C@@H](CC(C)C)C(=O)N[C@@H](CCSC)C(=O)N/C(=C\C)C(=O)N3)[C@H](C)SC[C@H](NC2=O)C(=O)N[C@@H](Cc2c[nH]cn2)C(=O)N1)[C@@H](C)CC)C(C)C)C(=O)N[C@@H](CCCCN)C(=O)O [Nisin H] | 12.3 fold | 1.1 fold | –
C/C=C(\NC(=O)[C@H](CCCCN)NC(=O)[C@H](C)NC(=O)[C@@H]1CS[C@@H](C)[C@@H](NC(=O)[C@@H]2CSC[C@@H](NC(=O)[C@H](C)NC(=O)[C@@H](N)[C@@H](C)CC)C(=O)N[C@@H](CCCCN)C(=O)N[C@@H](Cc3ccccc3)C(=O)N[C@@H](CC(C)C)C(=O)N2)C(=O)N2CCC[C@H]2C(=O)NCC(=O)N1)C(=O)NCC(=O)N[C@@H]1CSC[C@@H]2NC(=O)[C@H](Cc3ccc(O)cc3)NC(=O)[C@@H](CS/C=C\NC2=O)NC(=O)[C@H](CC(N)=O)NC(=O)[C@H](Cc2ccccc2)NC1=O [Gallidermin] | 12.5 fold | 0.9 fold | –
C=C1NC(=O)[C@H]([C@@H](C)CC)NC(=O)[C@H](NC(=O)/C(=C/C)NC(=O)[C@@H](N)[C@@H](C)CC)CSC[C@@H](C(=O)N[C@H]2C(=O)N3CCC[C@H]3C(=O)NCC(=O)N[C@H](C(=O)N[C@@H](CCCCN)C(=O)N[C@H]3C(=O)NCC(=O)N[C@@H](C)C(=O)N[C@@H](CC(C)C)C(=O)N[C@@H](CCSC)C(=O)NCC(=O)N[C@H](C(=O)N[C@@H](CC(N)=O)C(=O)N[C@@H](CCSC)C(=O)N[C@@H](CCCCN)C(=O)O)CS[C@H]3C)CS[C@H]2C)NC(=O)[C@H](CC(C)C)NC1=O [Nisin1-22] | – | 0.7 fold | –
C=C1NC(=O)[C@H]([C@@H](C)CC)NC(=O)[C@H](NC(=O)/C(=C/C)NC(=O)[C@@H](N)[C@@H](C)CC)CSC[C@@H](C(=O)N[C@H]2C(=O)N3CCC[C@H]3C(=O)NCC(=O)N[C@H](C(=O)N[C@@H](CCCCN)C(=O)N[C@H]3C(=O)NCC(=O)N[C@@H](C)C(=O)N[C@@H](CC(C)C)C(=O)N[C@@H](CCSC)C(=O)NCC(=O)N[C@H](C(=O)N[C@@H](CC(N)=O)C(=O)N[C@@H](CCSC)C(=O)N[C@@H](CCCCN)C(=O)N[C@H]4C(=O)N[C@@H](C)C(=O)N[C@H]5C(=O)N[C@@H](CS[C@H]4C)C(=O)N[C@@H](Cc4c[nH]cn4)C(=O)N[C@H](C(=O)O)CS[C@H]5C)CS[C@H]3C)CS[C@H]2C)NC(=O)[C@H](CC(C)C)NC1=O [Nisin1-28] | – | 0.4 fold | 32 fold

Source: paper PMC5583591, “The N-terminal Region of Nisin Is Important for the BceAB-Type ABC Transporter NsrFP from Streptococcus agalactiae COH1” (Frontiers in Microbiology, 2017)
